Reference: ChEMBL document CHEMBL3352542, “Synthesis, biological evaluation and molecular modeling study of 2-(1,3,4-thiadiazolyl-thio and 4-methyl-thiazolyl-thio)-quinazolin-4-ones as a new class of DHFR inhibitors” (Bioorg Med Chem Lett, 2014)
Active and inactive are the calls of the source. The rule behind the calls is not given here.

How the values were obtained:
Dihydrofolate reductase = target: T1, Dihydrofolate reductase (Bos taurus, UniProt P00376); test: Inhibition of bovine liver DHFR
T1 sequence (P00376 whole entry): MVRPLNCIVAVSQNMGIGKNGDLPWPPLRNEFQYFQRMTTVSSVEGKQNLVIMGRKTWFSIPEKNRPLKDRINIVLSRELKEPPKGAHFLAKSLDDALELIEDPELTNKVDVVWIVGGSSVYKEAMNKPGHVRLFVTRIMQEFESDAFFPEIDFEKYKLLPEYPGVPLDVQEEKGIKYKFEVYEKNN

Staphylococcus aureus [1] = test: Antimicrobial activity against Staphylococcus aureus assessed as inhibition zone at 200 ug/disk after 24 hrs by disc-diffusion method; format: functional; details: read-out: IZ
Bacillus subtilis [2] = test: Antimicrobial activity against Bacillus subtilis assessed as inhibition zone at 200 ug/disk after 24 hrs by disc-diffusion method; format: functional; details: read-out: IZ
Escherichia coli = test: Antimicrobial activity against Escherichia coli assessed as inhibition zone at 200 ug/disk after 24 hrs by disc-diffusion method; format: functional; details: read-out: IZ
Pseudomonas aeruginosa = test: Antimicrobial activity against Pseudomonas aeruginosa assessed as inhibition zone at 200 ug/disk after 24 hrs by disc-diffusion method; format: functional; details: read-out: IZ
Candida albicans = test: Antimicrobial activity against Candida albicans assessed as inhibition zone at 200 ug/disk after 24 hrs by disc-diffusion method; format: functional; details: read-out: IZ
Staphylococcus aureus [3] = test: Antimicrobial activity against Staphylococcus aureus assessed as inhibition of visible growth after 24 hrs by disc-diffusion method; format: functional, organism-based
Bacillus subtilis [4] = test: Antimicrobial activity against Bacillus subtilis assessed as inhibition of visible growth after 24 hrs by disc-diffusion method; format: functional, organism-based
CCRF-CEM = test: Growth inhibition of human CCRF-CEM cells at 10 uM after 48 hrs; format: functional; details: read-out: GI
K562 = test: Growth inhibition of human K562 cells at 10 uM after 48 hrs; format: functional; details: K562, 48 h, read-out: GI
[5] = Growth inhibition of human MOLT4 cells at 10 uM after 48 hrs; format: functional; details: MOLT-4, 48 h, read-out: GI
[6] = Growth inhibition of human RPMI8226 cells at 10 uM after 48 hrs; format: functional; details: RPMI-8226, 48 h, read-out: GI
SR = test: Growth inhibition of human SR cells at 10 uM after 48 hrs; format: functional; details: read-out: GI
A549 = test: Growth inhibition of human A549 cells at 10 uM after 48 hrs; format: functional; details: A549, 48 h, read-out: GI
[7] = Growth inhibition of human HOP92 cells at 10 uM after 48 hrs; format: functional; details: HOP-92, 48 h, read-out: GI
NCI-H226 = test: Growth inhibition of human NCI-H226 cells at 10 uM after 48 hrs; format: functional; details: NCI-H226, 48 h, read-out: GI
NCI-H23 = test: Growth inhibition of human NCI-H23 cells at 10 uM after 48 hrs; format: functional; details: NCI-H23, 48 h, read-out: GI
[8] = Growth inhibition of human HCT116 cells at 10 uM after 48 hrs; format: functional; details: HCT-116, 48 h, read-out: GI
[9] = Growth inhibition of human HCT15 cells at 10 uM after 48 hrs; format: functional; details: HCT-15, 48 h, read-out: GI
KM12 = test: Growth inhibition of human KM12 cells at 10 uM after 48 hrs; format: functional; details: KM12, 48 h, read-out: GI
SF-268 = test: Growth inhibition of human SF268 cells at 10 uM after 48 hrs; format: functional; details: SF-268, 48 h, read-out: GI
[10] = Growth inhibition of human SF295 cells at 10 uM after 48 hrs; format: functional; details: SF-295, 48 h, read-out: GI
[11] = Growth inhibition of human SF539 cells at 10 uM after 48 hrs; format: functional; details: SF-539, 48 h, read-out: GI
SNB-75 = test: Growth inhibition of human SNB75 cells at 10 uM after 48 hrs; format: functional; details: SNB-75, 48 h, read-out: GI
U-251 = test: Growth inhibition of human U251 cells at 10 uM after 48 hrs; format: functional; details: U-251, 48 h, read-out: GI
[12] = Growth inhibition of human LOXIMVI cells at 10 uM after 48 hrs; format: functional; details: LOX IMVI, read-out: GI
M14 = test: Growth inhibition of human M14 cells at 10 uM after 48 hrs; format: functional; details: M14, 48 h, read-out: GI
SK-MEL-5 = test: Growth inhibition of human SK-MEL-5 cells at 10 uM after 48 hrs; format: functional; details: SK-MEL-5, 48 h, read-out: GI
[13] = Growth inhibition of human UACC257 cells at 10 uM after 48 hrs; format: functional; details: UACC-257, 48 h, read-out: GI
[14] = Growth inhibition of human UACC62 cells at 10 uM after 48 hrs; format: functional; details: UACC-62, 48 h, read-out: GI
[15] = Growth inhibition of human OVCAR3 cells at 10 uM after 48 hrs; format: functional; details: OVCAR-3, 48 h, read-out: GI
[16] = Growth inhibition of human OVCAR4 cells at 10 uM after 48 hrs; format: functional; details: OVCAR-4, 48 h, read-out: GI
[17] = Growth inhibition of human OVCAR8 cells at 10 uM after 48 hrs; format: functional; details: OVCAR-8, 48 h, read-out: GI
[18] = Growth inhibition of human NCI-ADR-RES cells at 10 uM after 48 hrs; format: functional; details: read-out: GI
A498 = test: Growth inhibition of human A498 cells at 10 uM after 48 hrs; format: functional; details: A498, 48 h, read-out: GI
ACHN = test: Growth inhibition of human ACHN cells at 10 uM after 48 hrs; format: functional; details: read-out: GI
CAKI-1 = test: Growth inhibition of human CAKI-1 cells at 10 uM after 48 hrs; format: functional; details: CAKI-1, 48 h, read-out: GI
[19] = Growth inhibition of human RXF393 cells at 10 uM after 48 hrs; format: functional; details: RXF 393, 48 h, read-out: GI
[20] = Growth inhibition of human UO31 cells at 10 uM after 48 hrs; format: functional; details: UO-31, 48 h, read-out: GI
[21] = Growth inhibition of human PC3 cells at 10 uM after 48 hrs; format: functional; details: PC-3, 48 h, read-out: GI
MCF7 = test: Growth inhibition of human MCF7 cells at 10 uM after 48 hrs; format: functional; details: MCF7, 48 h, read-out: GI
MDA-MB-231 = test: Growth inhibition of human MDA-MB-231 cells at 10 uM after 48 hrs; format: functional; details: MDA-MB-231, 48 h, read-out: GI
[22] = Growth inhibition of human Hs 578T cells at 10 uM after 48 hrs; format: functional; details: read-out: GI
T47D = test: Growth inhibition of human T47D cells at 10 uM after 48 hrs; format: functional; details: read-out: GI
MDA-MB-468 = test: Growth inhibition of human MDA-MB-468 cells at 10 uM after 48 hrs; format: functional; details: MDA-MB-468, 48 h, read-out: GI

With `Cc1ccc2nc(Sc3sc(N)nc3C)n(Cc3ccccc3)c(=O)c2c1` the IC50 (Dihydrofolate reductase) was 5 µM, the zone of inhibition at 200 µg/disc (Staphylococcus aureus [1]) was 18 mm and the zone of inhibition at 200 µg/disc (Bacillus subtilis [2]) was 21 mm. For the same molecule, the zone of inhibition at 200 µg/disc (Escherichia coli) was 8 mm, the zone of inhibition at 200 µg/disc (Pseudomonas aeruginosa) was 8 mm and the zone of inhibition at 200 µg/disc (Candida albicans) was 12 mm. The Activity (Staphylococcus aureus [3]) was “Active”, the Activity (Bacillus subtilis [4]) was “Active” and the inhibition of growth at 10 µM (CCRF-CEM) was 14.9%. The inhibition of growth at 10 µM (K562) was 17.4%, the inhibition of growth at 10 µM [5] was 34.2% and the inhibition of growth at 10 µM [6] was 28.1%. The inhibition of growth at 10 µM (SR) was 19%, the inhibition of growth at 10 µM (A549) was 22.1% and the inhibition of growth at 10 µM [7] was 50.2%. It also gave an inhibition of growth at 10 µM (NCI-H226) of 22.7%, an inhibition of growth at 10 µM (NCI-H23) of 19.2% and an inhibition of growth at 10 µM [8] of 20.7%. It also gave an inhibition of growth at 10 µM [9] of 13.5%, an inhibition of growth at 10 µM (KM12) of 18.8% and an inhibition of growth at 10 µM (SF-268) of 10.8%. It also gave an inhibition of growth at 10 µM [10] of 21.9%, an inhibition of growth at 10 µM [11] of 15.1% and an inhibition of growth at 10 µM (SNB-75) of 22.7%. It also gave an inhibition of growth at 10 µM (U-251) of 12.2%, an inhibition of growth at 10 µM [12] of 19.5% and an inhibition of growth at 10 µM (M14) of 10.3%. It also gave an inhibition of growth at 10 µM (SK-MEL-5) of 25.8%, an inhibition of growth at 10 µM [13] of 11.6% and an inhibition of growth at 10 µM [14] of 22.8%. It also gave an inhibition of growth at 10 µM [15] of 19.2%, an inhibition of growth at 10 µM [16] of 18.7% and an inhibition of growth at 10 µM [17] of 16%. It also gave an inhibition of growth at 10 µM [18] of 20.3%, an inhibition of growth at 10 µM (A498) of 21.9% and an inhibition of growth at 10 µM (ACHN) of 19.8%. The inhibition of growth at 10 µM (CAKI-1) was 13.7%, the inhibition of growth at 10 µM [19] was 17.8% and the inhibition of growth at 10 µM [20] was 35.5%. It also gave an inhibition of growth at 10 µM [21] of 34.5%, an inhibition of growth at 10 µM (MCF7) of 10.7% and an inhibition of growth at 10 µM (MDA-MB-231) of 14.2%. It also gave an inhibition of growth at 10 µM [22] of 19.4%, an inhibition of growth at 10 µM (T47D) of 23.9% and an inhibition of growth at 10 µM (MDA-MB-468) of 30.1%.
